The subject of series [1] is Hsp90 clients in BT474 cell line. As to the kind of experiment: Western blotting of Hsp90 clients, BT474. It is filed as cell-based. The note with it: BT474, 10 μM, 72 hours. The procedure: To perform western blotting, BT-474 and JIMT-1 cell lines were treated with control (DMSO), compound 18c, and compound 11k at concentrations of 10 μM each for 72 hours, and then lysed in lysis buffer (30 mM NaCl, 0.5% Triton X-100, 50 mM Tris-HCl; pH 7.4) containing phosphatase and protease inhibitors. The proteins present in the supernatant were harvested. The protein concentration was measured using a Bradford protein assay kit, and 30 μg of protein was taken equally from each experimental group. These proteins were electrophoresed on SDS-Polyacrylamide gels (8-15%), and electrically transferred to a nitrocellulose membrane. The membrane was reacted with primary antibodies [pro PARP (1:1000), cleaved PARP (1:2000), cleaved caspase-3 (1:1000), cleaved caspase-7 (1:1000), β-actin (1:5000)] diluted in 5% bovine serum albumin (BSA) at 4° C. for 24 hours, followed by a secondary antibody, horseradish peroxidase (HRP)-conjugated rabbit IgG (1:3000) for 2 hours at room temperature. The signal intensity of the above proteins was checked by color development using an Enhanced Chemiluminescence Kit and x-ray film.
Western blotting was used to investigate whether Hsp90 inhibitors, compound 18c (formula 1-16) and compound 11k (formula 1-7), could downregulate the expression and activity (phosphorylation) of HER2 and HER3, which are representative clients of Hsp90, in BT474 and JIMT-1 cell lines. The expression of Akt, MEK, ERK, Bcl-2, Cyclin D1, and Survivin, which are key factors for cell survival as Hsp90 clients, was also investigated. The western blotting was performed by the method that was used in Experimental Example 2.3.
The BT474 and JIMT-1 cell lines were treated with compound 18c and compound 11k at a concentration of 10 μM for 72 hours.

For series [2], the system named is ovarian cancer cell line SKOV3. As to the kind of experiment: MTS cell viability assay in SKOV3. It is filed as cell-based. The note with it: SKOV3, 0.1-20 μM, 72 hours. How it is done:
(§1) Specifically, cells were attached to 96 well plates for 24 hours, and then treated with the indazole derivatives for 72 hours. Thereafter, the cells were chromogenized with MTS for 4 hours, and the absorbance was measured at 490 nm using a Spectramax Plus384 microplate analyzer. The significance between the control group and the experimental group was verified using an unpaired Students t-test (*p<0.01; DMSO control vs indazole series).
(§2) In addition to the breast cancer cell line, a leukemia cell line HL-60, a liver cancer cell line HepG2, a colorectal cancer cell line HCT116, a prostate cancer cell line Du145, an ovarian cancer cell line SKOV3, and non-small cell lung cancer cell lines NCI-H1299 and A549 were treated with compound 11k (formula 1-7) at concentrations of 0 (DMSO), 0.1, 0.5, 1, 2, 5, 10, and 20 μM, respectively, for 72 hours, and then cell viability was measured using the MTS assay technique as explained by the description of Experimental Example 1. The significance between the control group and the experimental group was verified using an unpaired Students t-test (*p<0.01; DMSO control vs compound 11k).

In series [3] the test system is prostate cancer cell line Du145. As to the kind of experiment: MTS cell viability assay in Du145. The following applies: Du145, 0.1-20 μM, 72 hours. It is filed as cell-based. The procedure:
as §1, §2

In series [4] the test system is non-small cell lung cancer cell line NCI-H1299. The series is described as follows: MTS cell viability assay in NCI-H1299. It is filed as cell-based. The note with it: NCI-H1299, 0.1-20 μM, 72 hours. The procedure:
as §1, §2

Series [5] relates to non-small cell lung cancer cell line A549. As to the kind of experiment: MTS cell viability assay in A549. It is filed as cell-based. The note with it: A549, 0.1-20 μM, 72 hours. How it is done:
as §1, §2

The test system of series [6] is colorectal cancer cell line HCT116. The series is described as follows: MTS cell viability assay in HCT116. It is filed as cell-based. The following applies: HCT116, 0.1-20 μM, 72 hours. The procedure:
as §1, §2

The test system of a further series is leukemia cell line HL-60. The series is described as follows: MTS cell viability assay in HL-60. It is filed as cell-based. The note with it: HL-60, 0.1-20 μM, 72 hours. The procedure:
as §1, §2

The subject of series [7] is JIMT-1 breast cancer cell line xenograft. As to the kind of experiment: Tumor growth in JIMT-1 xenograft mouse model, combination with paclitaxel. Format: in vivo, Balb/c nude mice. How it is done:
This experiment was performed in an in vivo environment using a xenograft mouse model transplanted with the JIMT-1 breast cancer cell line.
6-week-old mice (Balb/c nude mice) were purchased and raised in an environment where they could freely access food and water. The mice were acclimated for more than 7 days, and then were transplanted with tumor cells. Tumor cells were injected subcutaneously into the mammary gland tissue of JIMT-1 breast cancer cells at a density of 3×10^6 cells/mL per individual, and when the tumor reached a size of 50 to 100 mm^3, the indazole derivative of the present disclosure was administered intraperitoneally, and the tumor growth was measured.

Series [8] is described as follows: Toxicity in JIMT-1 xenograft mice, combination with paclitaxel (body weight, AST, ALT, BUN). The following applies: combination study. It is filed as in vivo, Balb/c nude mice.
Series [9] has as its system BT474 breast cancer cell line. The series is described as follows: Flow cytometry DNA content (PI), cell cycle arrest and cell death, BT474. Format: cell-based. The note with it: BT474, 5 and 10 μM, 72 hours, flow cytometer. How it is done: The degree of cancer cell death by the indazole derivative of the present disclosure was measured by analyzing DNA content using a flow cytometer. Cells were treated with compound 18c (formula 1-16) and compound 11k (formula 1-7) at concentrations of 0 (DMSO), 5, and 10 μM for 72 hours, and then the cells were harvested. Thereafter, the cells were fixed with 95% ethanol containing 0.5% Tween-20 for 24 hours, and stained with propidium iodide (PI, 50 μg/mL) and RNase (50 μg/mL) for 30 minutes. Afterwards, the degree of cancer cell death was analyzed using a flow cytometer.
In general, the cell cycle is divided into G1 (cell growth phase)—S(cell replication phase)—G2/M (cell division phase) according to the content of intracellular DNA. […] The results of this cell death within the cell cycle are manifested by the Sub-G1 region, and the percentage of Sub-G1 induced by the indazole derivative of the present disclosure is shown numerically in FIGS. 5B and 6B.

Series [10] relates to liver cancer cell line HepG2. As to the kind of experiment: MTS cell viability assay in HepG2. It is filed as cell-based. The following applies: HepG2, 0.1-20 μM, 72 hours. The procedure: as §1, §2

This note sets out measurements from US20260167629A1, “NOVEL INDAZOLE DERIVATIVE OR PHARMACEUTICALLY ACCEPTABLE SALT THEREOF, AND USE THEREOF” (KOREA UNIVERSITY RESEARCH AND BUSINESS FOUNDATION, priority 2022, published 2026).

Structures are written as SMILES.

Consider `COc1c(C(=O)Nc2ccc3c(C)nn(CCC4CCN(C)CC4)c3c2)ccc2c1C=CC(C)(C)O2` [compound 11k, 5-Methoxy-2,2-dimethyl-N-(3-methyl-1-(2-(1-methylpiperidin-4-yl)ethyl)-1H-indazol-6-yl)-2H-chromene-6-carboxamide], for which, in series [1], the “expression of HER2 and HER3” value is “decreased”. The “expression of activated forms phospho-HER2 and phospho-HER3” value in series [1] is recorded as “significantly reduced”. Also, the “expression of cell proliferation factors Akt, MEK, ERK, Bcl-2, Cyclin D1, and Survivin” value in [1] is listed as “inhibited the expression”. Also, the cell viability result (in [2]; in [3]; in [4]; in series [5]; in series [6]; with leukemia cell line HL-60) was “effective in inhibiting cell viability” throughout. Also, the cell viability result in series [10] is “effective in inhibiting cell viability”. Moreover, in series [7] (measured after tumor resection), the tumor weight came out at 500 mg. Moreover, the tumor volume in series [7] (measured at 40 days after drug administration) was found to be 786.392 mm^3. Further, in series [8] (blood of the mouse model), the “AST and ALT levels, BUN assay” value is listed as “levels similar to those of the control group”. In series [8], the body weight entry is “remained unchanged”. The “G2/M phase of the cell cycle” value in [9] is recorded as “arrested the G2/M phase”. Moreover, in series [9], the “cell death (Sub-G1 population)” value is “significantly induced cell death”.
As for `COCCn1nc(NC(=O)c2ccc3c(c2OC)C=CC(C)(C)O3)c2ccccc21` [compound 18c, 5-Methoxy-N-(1-(2-methoxyethyl)-1H-indazol-3-yl)-2,2-dimethyl-2H-chromene-6-carboxamide], in [1], the “expression of HER2 and HER3” value was “decreased”; the “expression of activated forms phospho-HER2 and phospho-HER3” value was “significantly reduced”; the “expression of cell proliferation factors Akt, MEK, ERK, Bcl-2, Cyclin D1, and Survivin” value is given as “inhibited the expression”. Besides, in series [9], the “G2/M phase of the cell cycle” value is listed as “arrested the G2/M phase” and the “cell death (Sub-G1 population)” value is “significantly induced cell death”.
